This note sets out measurements from article PMC9814900 (Communications Chemistry, 2022).

Where two headings read alike, the source gives them in different places. Numbered stars: 1 amine (or outer) side, 2 acyl side, 3 side chain; on linkers, the order of the positions; unused ones are H or OH. Bridge positions count the residues as written; N and C are the ends. Peptide text beside a SMILES is read from it. C6F4(1,4-diyl) = Fc1c(F)c([*:2])c(F)c(F)c1[*:1]

The target of the assay is T1, SUMO-25-109MDM2 (Homo sapiens, UniProt Q00987).
T1 construct: the ^25-109MDM2 gene was purchased from Addgene; made in house; host or cells: E. coli Rosetta (DE3) pLysS
The assay can be described thus: In-solution competition assay by biolayer interferometry (BLI). The format is binding.

The mark [1] stands for this setting: supplementary binding validation, averaged over three measurements, ~30-100 nM SUMO-25-109MDM2 as given per peptide, read-out: Averaged KD, competition BLI assay.
Where [2] appears, read: Figs 3-5, peptide pre-incubated 30 min with ~50 or ~100 nM SUMO-25-109MDM2 in PBS, 0.05% Tween-20, 1 mg/mL BSA, sensor loaded with Biotin-PEG4-p53(15-29), 30 °C, response after 2 min, read-out: KD, competition assay using BLI.

`CC(C)C[C@H](NC(=O)[C@H](CC(N)=O)NC(=O)[C@H](Cc1c[nH]c2ccccc12)NC(=O)[C@H](Cc1ccc(O)cc1)NC(=O)[C@@H]1CSc2c(F)c(F)c(c(F)c2F)SC[C@H](N)C(=O)N[C@@H](CO)C(=O)N[C@@H](Cc2ccccc2)C(=O)N[C@@H](C)C(=O)N1)C(=O)N[C@@H](CC(C)C)C(=O)N[C@@H](CO)C(=O)N1CCC[C@H]1C(N)=O` [Peptide 9] (H-CSFACYWNLLSP-NH2; linker 1-5 via C6F4(1,4-diyl)): the Kd (supplementary binding validation, N=1, ~250 nM SUMO-25-109MDM2, read-out: KD, competition BLI assay) was 925 ± 70 nM. With `CC(C)C[C@H](NC(=O)[C@H](C)NC(=O)[C@H](Cc1c[nH]c2ccccc12)NC(=O)[C@H](Cc1ccc(O)cc1)NC(=O)[C@H](CCC(=O)O)NC(=O)[C@H](C)NC(=O)[C@H](Cc1ccccc1)NC(=O)[C@H](CO)NC(=O)[C@@H](N)[C@@H](C)O)C(=O)N[C@@H](CC(C)C)C(=O)N[C@@H](CO)C(=O)N[C@@H](C)C(N)=O` [Peptide 8] (H-TSFAEYWALLSA-NH2), binding was put at a Kd of 0.7 ± 0.5 nM.

Take `CC(C)C[C@H](NC(=O)[C@H](CC(N)=O)NC(=O)[C@H](Cc1c[nH]c2ccccc12)NC(=O)[C@H](C)NC(=O)[C@H](CCC(=O)O)NC(=O)[C@H](C)NC(=O)[C@H](Cc1ccccc1)NC(=O)[C@H](C)NC(=O)[C@@H](N)[C@@H](C)O)C(=O)N[C@@H](CC(C)C)C(=O)N[C@@H](CO)C(=O)N1CCC[C@H]1C(N)=O` [Peptide 2] (H-TAFAEAWNLLSP-NH2): under setting [1], the Kd was found to be 628 ± 89 nM. Take `CC(C)C[C@H](NC(=O)[C@@H]1CSc2c(F)c(F)c(c(F)c2F)SC[C@H](NC(=O)[C@H](C)NC(=O)[C@H](Cc2ccccc2)NC(=O)[C@H](CO)NC(=O)[C@@H](N)[C@@H](C)O)C(=O)N[C@@H](Cc2ccc(O)cc2)C(=O)N[C@@H](Cc2c[nH]c3ccccc23)C(=O)N[C@@H](C)C(=O)N1)C(=O)N[C@@H](CO)C(=O)N[C@@H](C)C(N)=O` [Peptide 37] (H-TSFACYWACLSA-NH2; linker 5-9 via C6F4(1,4-diyl)): under setting [1], the Kd is 1.6 ± 1.3 nM. As to `CC(C)C[C@H](NC(=O)[C@H](CC(N)=O)NC(=O)[C@H](Cc1c[nH]c2ccccc12)NC(=O)[C@H](C)NC(=O)[C@H](CCC(=O)O)NC(=O)[C@H](C)NC(=O)[C@H](Cc1ccccc1)NC(=O)[C@H](CO)NC(=O)[C@@H](N)[C@@H](C)O)C(=O)N[C@@H](C)C(=O)N[C@@H](CO)C(=O)N1CCC[C@H]1C(N)=O` [Peptide 6] (H-TSFAEAWNLASP-NH2), the Kd runs as follows: under setting [2], 1440 ± 390 nM; under setting [1], 2140 ± 390 nM.

On to `CC(C)C[C@H](NC(=O)[C@H](CC(N)=O)NC(=O)[C@@H]1CSc2c(F)c(F)c(c(F)c2F)SC[C@H](NC(=O)[C@H](CO)NC(=O)[C@@H](N)[C@@H](C)O)C(=O)N[C@@H](C)C(=O)N[C@@H](CCC(=O)O)C(=O)N[C@@H](Cc2ccc(O)cc2)C(=O)N1)C(=O)N[C@@H](CC(C)C)C(=O)N[C@@H](CO)C(=O)N1CCC[C@H]1C(N)=O` [Peptide 11] (H-TSCAEYCNLLSP-NH2; linker 3-7 via C6F4(1,4-diyl)), for which the Kd is 1620 ± 263 nM under setting [2] and 1590 ± 315 nM under setting [1]. Consider `CC(C)C[C@H](NC(=O)[C@H](CC(C)C)NC(=O)[C@H](CC(N)=O)NC(=O)[C@H](C)NC(=O)[C@H](Cc1ccc(O)cc1)NC(=O)[C@H](CCC(=O)O)NC(=O)[C@H](C)NC(=O)[C@H](Cc1ccccc1)NC(=O)[C@H](CO)NC(=O)[C@@H](N)[C@@H](C)O)C(=O)N[C@@H](C)C(=O)N1CCC[C@H]1C(N)=O` [Peptide 7] (H-TSFAEYANLLAP-NH2), for which, under setting [1], the Kd worked out at 1220 ± 231 nM. Still for that read-out and setting: next, `CC(C)C[C@H](NC(=O)[C@H](CC(N)=O)NC(=O)[C@H](C)NC(=O)[C@H](Cc1ccc(O)cc1)NC(=O)[C@H](CCC(=O)O)NC(=O)[C@H](C)NC(=O)[C@H](C)NC(=O)[C@H](CO)NC(=O)[C@@H](N)[C@@H](C)O)C(=O)N[C@@H](CC(C)C)C(=O)N[C@@H](CO)C(=O)N1CCC[C@H]1C(N)=O` [Peptide 3] (H-TSAAEYANLLSP-NH2): 4910 ± 713 nM. As for `CC(C)C[C@H](NC(=O)[C@H](CC(N)=O)NC(=O)[C@H](Cc1c[nH]c2ccccc12)NC(=O)[C@@H]1CSc2c(F)c(F)c(c(F)c2F)SC[C@H](NC(=O)[C@@H](N)[C@@H](C)O)C(=O)N[C@@H](Cc2ccccc2)C(=O)N[C@@H](C)C(=O)N[C@@H](CCC(=O)O)C(=O)N1)C(=O)N[C@@H](CC(C)C)C(=O)N[C@@H](CO)C(=O)N1CCC[C@H]1C(N)=O` [Peptide 10] (H-TCFAECWNLLSP-NH2; linker 2-6 via C6F4(1,4-diyl)), the Kd is, setting by setting: under setting [2], 449 ± 57 nM; under setting [1], 431 ± 46 nM. On to `CC(C)C[C@H](NC(=O)[C@@H]1CSc2c(F)c(F)c(c(F)c2F)SC[C@H](NC(=O)[C@H](C)NC(=O)[C@H](Cc2ccccc2)NC(=O)[C@H](CO)NC(=O)[C@@H](N)[C@@H](C)O)C(=O)N[C@@H](Cc2ccc(O)cc2)C(=O)N[C@@H](Cc2c[nH]c3ccccc23)C(=O)N[C@@H](CC(N)=O)C(=O)N1)C(=O)N[C@@H](CO)C(=O)N1CCC[C@H]1C(N)=O` [Peptide 13] (H-TSFACYWNCLSP-NH2; linker 5-9 via C6F4(1,4-diyl)), for which the dissociation constant Kd worked out at 36 ± 8.5 nM. For `CC(C)C[C@H](NC(=O)[C@H](CC(N)=O)NC(=O)[C@H](Cc1c[nH]c2ccccc12)NC(=O)[C@H](Cc1ccc(O)cc1)NC(=O)[C@H](C)NC(=O)[C@H](C)NC(=O)[C@H](Cc1ccccc1)NC(=O)[C@H](CO)NC(=O)[C@H](C)N)C(=O)N[C@@H](CC(C)C)C(=O)N[C@@H](CO)C(=O)N1CCC[C@H]1C(N)=O` [Peptide 1] (H-ASFAAYWNLLSP-NH2), under setting [1], the Kd was 10 ± 2.3 nM. For the molecule `CC(C)C[C@@H]1NC(=O)[C@H](CC(N)=O)NC(=O)[C@@H](NC(=O)[C@H](Cc2ccc(O)cc2)NC(=O)[C@H](CCC(=O)O)NC(=O)[C@H](C)NC(=O)[C@H](Cc2ccccc2)NC(=O)[C@H](CO)NC(=O)[C@@H](N)[C@@H](C)O)CSc2c(F)c(F)c(c(F)c2F)SC[C@@H](C(=O)N2CCC[C@H]2C(N)=O)NC(=O)[C@H](CC(C)C)NC1=O` [Peptide 15] (H-TSFAEYCNLLCP-NH2; linker 7-11 via C6F4(1,4-diyl)), under setting [1], the Kd came to 1150 ± 209 nM. As to `CC(C)C[C@H](NC(=O)[C@@H]1CSc2c(F)c(F)c(c(F)c2F)SC[C@H](NC(=O)[C@H](Cc2ccccc2)NC(=O)[C@H](CO)NC(=O)[C@@H](N)[C@@H](C)O)C(=O)N[C@@H](CCC(=O)O)C(=O)N[C@@H](Cc2ccc(O)cc2)C(=O)N[C@@H](Cc2c[nH]c3ccccc23)C(=O)N1)C(=O)N[C@@H](CC(C)C)C(=O)N[C@@H](CO)C(=O)N1CCC[C@H]1C(N)=O` [Peptide 12] (H-TSFCEYWCLLSP-NH2; linker 4-8 via C6F4(1,4-diyl)), under setting [1], the equilibrium dissociation constant (Kd) came to 26 ± 5 nM.

For the molecule `CC(C)C[C@H](NC(=O)[C@H](C)NC(=O)[C@H](CC(N)=O)NC(=O)[C@H](Cc1c[nH]c2ccccc12)NC(=O)[C@H](Cc1ccc(O)cc1)NC(=O)[C@H](C)NC(=O)[C@H](C)NC(=O)[C@H](Cc1ccccc1)NC(=O)[C@H](CO)NC(=O)[C@@H](N)[C@@H](C)O)C(=O)N[C@@H](CO)C(=O)N1CCC[C@H]1C(N)=O` [Peptide 5] (H-TSFAAYWNALSP-NH2), under setting [1], the Kd worked out at 30 ± 3.8 nM. On to `CC(C)C[C@@H]1NC(=O)[C@H](C)NC(=O)[C@@H](NC(=O)[C@H](Cc2c[nH]c3ccccc23)NC(=O)[C@H](Cc2ccc(O)cc2)NC(=O)[C@H](CCC(=O)O)NC(=O)[C@H](C)NC(=O)[C@H](Cc2ccccc2)NC(=O)[C@H](CO)NC(=O)[C@@H](N)[C@@H](C)O)CSc2c(F)c(F)c(c(F)c2F)SC[C@@H](C(N)=O)NC(=O)[C@H](CO)NC1=O` [Peptide 40] (H-TSFAEYWCALSC-NH2; linker 8-12 via C6F4(1,4-diyl)), for which the Kd by setting is: under setting [2], 0.7 ± 0.5 nM; under setting [1], 0.2 ± 0.1 nM.
